Experiments:
[1] = system: 4T1; assay: Broad cell line profiling, 4T1; format: cell-based; details: 4T1, Mouse Mammary Carcinoma; read-out: PA IC50
From the text: (§1) • A panel of human and mouse cancer cell types used to assess the breadth of PA activity, including multiple therapy resistant metastatic mesenchymal tumor cell lines and primary glioblastoma patient-derived metastatic stem/tumor initiating cell populations.

[2] = system: LNCaP; assay: Broad cell line profiling, LNCaP; format: cell-based; details: Homo sapiens, Prostate Carcinoma, read-out: PA IC50
From the text: as §1

[3] = system: HT-1080 fibrosarcoma; assay: HT-1080 Tumor Xenograft Model; format: in vivo, mouse; details: 0.3 or 1.0 mg/kg, i.p.
From the text: FIG. 9. […] (A) Systemic Portimine A in MC38 Syngeneic Tumor Xenograft Model; and (B) Systemic Portimine A in HT-1080 Tumor Xenograft Model.
Preliminary cell-based target engagement studies, based on compound washout, indicates PA is fast acting with <1 hr of exposure resulting in minimal loss of potency. Cmax-driven pharmacology and facile synthetic access to material enabled the evaluation of PA in both a syngeneic (MC38 colon carcinoma) and a human metastatic mesenchymal (HT-1080 fibrosarcoma) mouse tumor xenograft model. […] Metabolic stability represents an opportunity for an additional IP position.
• 1) Portimine A and its functional analogs show stereo-selective acute toxicity in cancer cells (FIG. 1). […] (B) Structure of portimine related analogs: phenyl-portimine A (Ph-PA, 36) and epi-portimine A (ePA, 38). Structure of fully functionalized portimine A-based epimeric probe pair: portimine A-diazirine-alkyne (PA-DA, 35-2) and epi-portimine A-diazirine-alkyne (ePA-DA, 35-1). (C) Cell viability analysis of portimine A and analogs. Jurkat cells were treated with increasing concentrations of portimine A and analogs for 24 hours. All presented data as mean of biological replicated experiments (n=3). […] Jurkat cells were treated with portimine A or analogs for 12 hours at 10 nM. […]

With `C=CC1=C[C@@H]2[C@@H]3O[C@]4(CC[C@H](O4)C(C)C[C@@H](O)C3=O)CC(O)C3=NCC[C@@]32CC1` (stereo partly drawn) [PA, portimine A] the IC50 [1] was 0.63 nM, the IC50 [2] was 1.7 nM and the “anti-tumor activity, HT-1080 fibrosarcoma xenograft model” value [3] was “Potent anti-tumor activity”.
